Test results as given in patent publication US20150105252A1, “SUBSTITUTED PYRAZOLES AS HERBICIDES” (E I DU PONT DE NEMOURS AND COMPANY, priority 2013, published 2015).

Columns and labels:
[1] = system: bluegrass; test: Test E preemergence; assay type: in vivo, Poa annua; settings: 21 days, scale 0 to 100
Description: (§1) Seeds of plant species selected from bermudagrass (Cynodon dactylon), Surinam grass (Brachiaria decumbens), crabgrass, large (large crabgrass, Digitaria sanguinalis), crabgrass, naked (naked crabgrass, Digitaria nuda), foxtail, green (green foxtail, Setaria viridis), johnsongrass (Sorghum halepense), kochia (Kochia scoparia), morningglory (pitted morningglory, Ipomoea lacunosa), nutsedge, purple (purple nutsedge, Cyperus rotundus), ragweed (common ragweed, Ambrosia elation), mustard, black (black mustard, Brassica nigra), guineagrass (Panicum maximum), dallisgrass (Paspalum dilatatum), barnyardgrass (Echinochloa crus-galli), sandbur (southern sandbur, Cenchrus echinatus), sowthistle (common sowthistle, Sonchus oleraceous), ryegrass, Italian (Italian ryegrass, Lolium multiflorum), signalgrass (broadleaf signalgrass, Brachiaria platyphylla), dayflower, VA (Virginia (VA) dayflower, Commelina virginica), bluegrass (annual bluegrass, Poa annua), quackgrass (Elytrigia repens), mallow (common mallow, Malva sylvestris), buckwheat, wild (wild buckwheat, Polygonum convolvulus), leafy spurge (Euphorbia esula), common chickweed (Stellaria media), wild poinsettia (Euphorbia heterophylla), pigweed, palmer (palmer pigweed, Amaranthus palmeri), and pigweed (redroot pigweed, Amaranthus retroflexus) were planted into a blend of loam soil and sand and treated preemergence with test chemicals formulated in a non-phytotoxic solvent mixture which included a surfactant.
(§2) Treated plants and controls were maintained in a greenhouse for 21 days, after which time all species were compared to controls and visually evaluated. Plant response ratings, summarized in Table E, are based on a scale of 0 to 100 where 0 is no effect and 100 is complete control. A dash (-) response means no test result.

[2] = system: sowthistle; test: Test E preemergence; assay type: in vivo, Sonchus oleraceous; settings: 21 days, scale 0 to 100
Description: as §1, §2

[3] = system: crabgrass, large; test: Test E preemergence; assay type: in vivo, Digitaria sanguinalis; settings: 21 days, scale 0 to 100
Description: as §1, §2

[4] = system: hairy beggarticks; test: Test F postemergence; assay type: in vivo, Bidens pilosa; settings: scale 0 to 100
Outline: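 Formulated in surfactant-containing non-phytotoxic solvent; pre: applied to seeded silt loam; post: applied to plants 2–18 cm (1–4 leaves); greenhouse 14–21 d; visual 0–100 rating vs controls.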

[5] = system: ragweed; test: Test E preemergence; assay type: in vivo, Ambrosia elation; settings: 21 days, scale 0 to 100
Description: as §1, §2

[6] = system: common chickweed; test: Test E preemergence; assay type: in vivo, Stellaria media; settings: 21 days, scale 0 to 100
Description: as §1, §2

[7] = system: crabgrass, Brazil; test: Test F postemergence; assay type: in vivo, Digitaria horizontalis; settings: scale 0 to 100
Description: (§3) Seeds of plant species selected from corn (Zea mays), soybean (Glycine max), velvetleaf (Abutilon theophrasti), lambsquarters (Chenopodium album), wild poinsettia (Euphorbia heterophylla), pigweed, palmer (palmer pigweed, Amaranthus palmeri), common waterhemp (Amaranthus rudis), surinam grass (Brachiaria decumbens), large crabgrass (Digitaria sanguinalis), crabgrass, Brazil (Brazilian crabgrass, Digitaria horizontalis), fall panicum (Panicum dichotomiflorum), giant foxtail (Setaria faberii), green foxtail (Setaria viridis), goosegrass (Eleusine indica), johnsongrass (Sorghum halepense), common ragweed (Ambrosia elation), barnyardgrass (Echinochloa crus-galli), southern sandbur (Cenchrus echinatus), arrowleaf sida (Sida rhombifolia), Italian ryegrass (Lolium multiflorum), dayflower, VA (Virginia (VA) dayflower, Commelina virginica), field bindweed (Convolvulus arvensis), cocklebur (common cocklebur, Xanthium strumarium), morningglory (Ipomoea coccinea), nightshade (eastern black nightshade, Solanum ptycanthum), kochia (Kochia scoparia), yellow nutsedge (Cyperus esculentus), and hairy beggarticks (Bidens pilosa), were planted into a silt loam soil and treated preemergence with test chemicals formulated in a non-phytotoxic solvent mixture which included a surfactant.
(§4) At the same time, plants from these crop and weed species and also horseweed (Canada horseweed, Conyza canadensis), smartweed (ladysthumb smartweed, Polygonum persicaria), waterhemp_RES1, (ALS & Triazine resistant common waterhemp, Amaranthus rudis), and waterhemp_RES2, (ALS & HPPD resistant common waterhemp, Amaranthus rudis) were treated with postemergence applications of test chemicals formulated in the same manner. Plants ranged in height from 2 to 18 cm for postemergence treatments (1- to 4-leaf stage). Treated plants and controls were maintained in a greenhouse for 14 to 21 days, after which time all species were compared to controls and visually evaluated. Plant response ratings, summarized in Table F, are based on a scale of 0 to 100 where 0 is no effect and 100 is complete control. A dash (-) response means no test result.

[8] = system: kochia; test: Test F postemergence; assay type: in vivo, Kochia scoparia; settings: scale 0 to 100
Description: as §3, §4

## CCCc1cc(C(=O)NCC(F)(F)F)nn1Cc1ccnc(C(F)(F)F)c1 [Compound 105]
[1]; 16 g ai/ha
  Plant response rating, Bluegrass: 40
[1]; 31 g ai/ha
  Plant response rating, Bluegrass: 70
[1]; 62 g ai/ha
  Plant response rating, Bluegrass: 100
[1]; 125 g ai/ha
  Plant response rating, Bluegrass: 100
[1]; 250 g ai/ha
  Plant response rating, Bluegrass: 100
[2]; 16 g ai/ha
  Plant response rating, Sowthistle: 100
[2]; 31 g ai/ha
  Plant response rating, Sowthistle: 100
[2]; 62 g ai/ha
  Plant response rating, Sowthistle: 100
[2]; 125 g ai/ha
  Plant response rating, Sowthistle: 100
[2]; 250 g ai/ha
  Plant response rating, Sowthistle: 100
[3]; 16 g ai/ha
  Plant response rating, Crabgrass, Large: 98
[3]; 31 g ai/ha
  Plant response rating, Crabgrass, Large: 100
[3]; 62 g ai/ha
  Plant response rating, Crabgrass, Large: 100
[3]; 125 g ai/ha
  Plant response rating, Crabgrass, Large: 100
[3]; 250 g ai/ha
  Plant response rating, Crabgrass, Large: 100
[4]; Postemergence, 31 g ai/ha
  Plant response rating, Hairy Beggarticks: 40
[4]; Postemergence, 125 g ai/ha
  Plant response rating, Hairy Beggarticks: 50
[4]; Postemergence, 250 g ai/ha
  Plant response rating, Hairy Beggarticks: 70
[4]; postemergence, 62 g ai/ha
  Plant response rating, Hairy Beggarticks: 50
[4]; postemergence, 500 g ai/ha
  Plant response rating, Hairy Beggarticks: 85
[5]; 16 g ai/ha
  Plant response rating, Ragweed: 70
[5]; 31 g ai/ha
  Plant response rating, Ragweed: 100
[5]; 62 g ai/ha
  Plant response rating, Ragweed: 100
[5]; 125 g ai/ha
  Plant response rating, Ragweed: 100
[5]; 250 g ai/ha
  Plant response rating, Ragweed: 100
[6]; 16 g ai/ha
  Plant response rating, Common Chickweed: 98
[6]; 31 g ai/ha
  Plant response rating, Common Chickweed: 100
[6]; 62 g ai/ha
  Plant response rating, Common Chickweed: 100
[6]; 125 g ai/ha
  Plant response rating, Common Chickweed: 100
[6]; 250 g ai/ha
  Plant response rating, Common Chickweed: 100
[7]; Postemergence, 31 g ai/ha
  Plant response rating, Crabgrass, Brazil: 30
[7]; Postemergence, 125 g ai/ha
  Plant response rating, Crabgrass, Brazil: 50
[7]; Postemergence, 250 g ai/ha
  Plant response rating, Crabgrass, Brazil: 70
[7]; postemergence, 62 g ai/ha
  Plant response rating, Crabgrass, Brazil: 35
[7]; postemergence, 500 g ai/ha
  Plant response rating, Crabgrass, Brazil: 90
[8]; Postemergence, 31 g ai/ha
  Plant response rating, Kochia: 60
[8]; Postemergence, 125 g ai/ha
  Plant response rating, Kochia: 90
[8]; Postemergence, 250 g ai/ha
  Plant response rating, Kochia: 95
[8]; postemergence, 62 g ai/ha
  Plant response rating, Kochia: 90
[8]; postemergence, 500 g ai/ha
  Plant response rating, Kochia: 95
